Earlier results, collected in patent US7601526B2 (priority 2004, dated 2009).

Test system: F. tularensis

Row | SMILES | type of antibacterial action against F. tularensis
1 | [H]/N=C(/N)N[C@H]1[C@H](O)[C@@H](O)[C@H](O[C@@H]2O[C@@H](C)[C@](O)(C=O)[C@H]2O[C@@H]2O[C@@H](CO)[C@H](O)[C@@H](O)[C@@H]2NC)[C@@H](N/C(N)=N\[H])[C@@H]1O [Streptomycin] | bactericidal
2 | O=C(N[C@H](CO)[C@H](O)c1ccc([N+](=O)[O-])cc1)C(Cl)Cl [chloramphenicol] | bacteriostatic
